How the values were obtained:
ER [1] = biological target: T1, ER (Homo sapiens (Human), UniProt P03372); test: MCF-7 ER degradation assay (high content imaging); format: cell-based; conditions: MCF-7 cells, 1 nM compound, DMSO control as baseline; for MCF7 ER Degradation at 4 hr (%): 4 hours treatment; for MCF7 ER Degradation at 24 hr (%): 24 hours treatment
Procedure: The level of ER degradation by SERD described in this patent was analyzed by cell based high content imaging method. […] Then, 1 μL of compound solution (in DMSO) was added to the cells to make a final concentration of 1 nM per each well of treated cells. DMSO at the same final concentration (%) per each well was used to serve as negative control on each plate. After 4 hours or 24 hours of treatment at 37° C. with 5% CO2, the cells were fixed and permeabilized. Media from each well was aspirated and cells were gently washed with 1×PBS for 5 minutes and the wash procedure was repeated 3 times. Cells was then fixed with 4% formaldehyde freshly made in 1×PBS at room temperature for 20 minutes, followed by gentle washing with 1×PBS, 3 times for 5 minute each. The assay plate was incubated with 200 μl of 1×PBS containing 0.2% Triton-X100 for 5 minutes at room temperature, cells were then washed again with 1×PBS 3 times for 5 minutes each. After this, cells were incubated with the blocking buffer (1×PBS with 5% BSA) at room temperature for 1 hour. For immunostaining, blocking buffer was removed and primary anti-ER antibody (ER1D5, Santa Cruz) diluted in blocking buffer (1:400) was added to each well and cells were incubated overnight at 4° C. The next day, cells were washed with 1×PBS for 3 times with 5 minute each. […] Cells were washed with 1×PBS for 3 times with 5 minute each time. Cells were incubated with DAPI (Beyotime; 1 μg/ml) for 10 minutes and washed with 1×PBS for 3 times with 5 minute each time. […] SERD induced ER degradation in the MCF-7 cells were measured using DMSO negative control as the baseline.

[2] = Human hepatocyte clearance study; format: in vitro ADME; conditions: pooled cryopreserved human hepatocytes (suspension); for hepatocyte CLint at 1 µM / half-life at 1 µM: human; for hepatocyte CLint at 1 µM: read-out: Human In vitro Clint (μL/min/10^6 cells); for half-life at 1 µM: read-out: Human In vitro T1/2; for CLint scaled at 1 µM: human hepatocytes, scaling factor 2544.3, read-out: Human Scale-up Clint
Procedure: (§1) The in vitro hepatocyte clearance of compound described here was studied using pooled human hepatocytes purchased from BioreclamationlVT (Westbury, NY, Cat #X008001, Lot #TQJ). Assay was conducted according to manufacture's instruction. Briefly, mM tock solutions of test compound and positive control (Verapamil) were prepared in 100% DMSO. Thawing media (50 mL) used in the study consists of: 31 mL Williams E medium (GIBCO Cat #12551-032); 15 mL isotonic percoll (GE Healthcare Cat #17-0891-09); 500 uL 100×GlutaMax (GIBCO Cat #35050); 750 uL HEPES (GIBCO Cat #15630-080); 2.5 mL FBS (Corning Cat #35-076-CVR); 50 uL human insulin (GIBCO Cat #12585-014) and 5 uL dexamethasone (NICPBP). Incubation media is made of Williams E medium supplemented with 1×GlutaMax. Thawing medium and supplement incubation medium (serum-free) were placed in a 37° C. water bath for at least 15 minutes prior to use. Compound stock solutions were diluted to 100 μM by combining 198 μt of 50% acetonitrile/50% water and 2 μL of 10 mM stock solution. Verapamil was use as positive control in the assay. Vials of cryopreserved hepatocytes were removed from storage and thawed in a 37° C. water bath with gentle shaking. Contents of the vial were poured into the 50 mL thawing medium conical tube. Vials were centrifuged at 100 g for 10 minutes at room temperature. Thawing medium was aspirated and hepatocytes were re-suspended with serum-free incubation medium to yield ˜1.5×10^6 cells/mL. Hepatocyte viability and density were counted using a Trypan Blue exclusion, and then cells were diluted with serum-free incubation medium to a working cell density of 0.5×10^6 viable cells/mL. Then, a portion of the hepatocytes at 0.5×10^6 viable cells/mL was boiled for 5 min prior to adding to the plate as negative control to eliminate the enzymatic activity so that little or no substrate turnover should be observed. The boiled hepatocytes were used to prepare negative samples. Aliquots of 198 μL hepatocytes were dispensed into each well of a 96-well non-coated plate. The plate was placed in the incubator on an orbital shaker at 500 rpm for approximately 10 minutes. Aliquots of 2 μL of the 100 μM test compound or positive control were added into respective wells of the non-coated 96-well plate to start the reaction. This assay was performed in duplicate. The plate was incubated in the incubator on an orbital shaker at 500 rpm for the designed time points. Twenty-five microliter of contents were transferred and mixed with 6 volumes (150 μL) of cold acetonitrile with IS (200 nM imipramine, 200 nM labetalol and 200 nM diclofenac) to terminate the reaction at time points of 0, 15, 30, 60, 90 and 120 minutes. Samples were centrifuged at 3,220 g for 25 minutes and aliquots of 150 μL of the supernatants was used for LC-MS/MS analysis. For data analysis, all calculations were carried out using Microsoft Excel. Peak areas were determined from extracted ion chromatograms. The in vitro half-life (t1/2) of parent compound was determined by regression analysis of the percent parent disappearance vs. time curve. The in vitro half-life (in vitro t1/2) was determined from the slope value: in vitro t1/2=0.693/k. […] Scaling factors for in vivo intrinsic clearance prediction using human hepatocytes are listed as: liver weight (g liver/kg body weight): 25.7; hepatocyte concentration (10^6 cells/g liver): 99; scaling factor: 2544.3.

pooled human hepatocytes = test: Human hepatocyte clearance study; format: in vitro ADME; conditions: human hepatocytes 0.5x10^6 viable cells/mL, 120 min
Procedure: as §1

[3] = Mouse PK study (iv 3 mpk, po 30 mpk); format: in vivo, male CD1 mice; conditions: male, CD1, whole blood; for clearance: 3 mg/kg, IV 3 mpk, read-out: Mouse IV 3 mpk CL (converted); for AUC(0-t) / half-life: 30 mg/kg, PO 30 mpk; for AUC(0-t): read-out: Mouse PO 30 mpk AUC last; for half-life: read-out: Mouse PO 30 mpk T½ (converted)
Procedure: Mouse PK study (iv 3 mpk, and po 30 mpk) was conducted using male CD1 mice (25-33 g) obtained from SLAC Laboratory Animal Co., LTD of Shanghai). Compound is prepared with the following formulation: 5% DMSO, 5% Solutol HS 15 and 9% HPBCD in water. For intravenous (iv) dose at 3 mpk and oral (po) dose at 30 mpk, the compound is formulated at the concentration […] and […], respectively. Compound formulation is freshly made prior to dosing in the morning. Oral dosing is via the use of oral gavage at 10 mL/kg, while iv dosing is via tail vein at 5 mL/kg. Three mice are used for each dosing route per compound per dose. Serial blood sample (30 uL whole blood at each time point) is collected into the K2EDTA tubes via facial vein at the following time points: 5 min (for iv route only), 30 min, 1, 2, 4, 6, 8, 12 and 24 hours. For each blood sample collected, immediately transfer 20 uL blood sample and mix well with 60 uL water in a 96-well plate (whole blood:water=1:3 v/v). Diluted blood samples are stored at −80C freezer until analysis. For analysis, an aliquot of 20 μL sample was added with 200 μL IS (Glipizide, 100 ng/mL) in ACN. The mixture was vortexed for 2 min and centrifuged at 5800 rpm for 10 min. An aliquot of 2 μL supernatant was injected for LC-MS/MS analysis. Compound at 2.0-3000 ng/mL in CD1 mouse diluted blood is used for calibration curve. Pharmacokinetic data are obtained and described in the table below: […]

[4] = system: breast cancer cell line MCF-7; test: MCF-7 cell growth study (celltiter-glo luminescent viability assay); format: cell-based, human; conditions: Homo sapiens, MCF7, 144 h, MCF-7 cells, 6 days incubation; read-out: IC50 (nM), cell growth inhibition;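 further: viability read by luminescence after compound exposure, relative to DMSO vehicle-treated wells on the same plate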
Procedure: Compound activity was analyzed using celltiter-glo luminescent viability assay (Promega #G7572) in breast cancer cell line MCF-7. Cells grown in log phase are trypsinized and seeded into a 96-well cell culture plate at a density of 2×10^3 per well and incubated overnight at 37° C. with 5% CO2 in humidified culture chamber. The next day, compounds were prepared in 100% DMSO and were serially diluted and added into cells in the following final concentrations: 316, 100, 31.6, 10, 3.16, 1, 0.32, 0.1, 0.03, 0.01, 0.003 and 0.001 nM. As a control, same volume and concentration of DMSO vehicle control solution was added to the control wells in each plate. The cells were incubated with compounds at 37° C. culture chamber for 6 days. Promega's celltiter-glo kit was used to analyze the cell viability, according to manufacture's instruction. Briefly, fifty microliter of celltiter-glo reagent was added to each well, plate (covered with aluminum foil) was gently vibrated for 10 min to induce cell lysis at room temperature. Luminescence was measured using a SPECTRAmax i3 reader.

xMCF-7 xenograft tumor = test: Human breast cancer xMCF-7 xenograft efficacy study in mouse; format: in vivo; conditions: for tumor growth inhibition and tumor regression (FIG. 2): 2 mg/kg orally, once daily for 28 days, start at tumor ~250 mm^3
Procedure: To investigate the in vivo efficacy of SERD compounds described in this application, female nude mice were inoculated with human ER+ breast cancer cells xMCF-7. xMCF-7 cells are derived from MCF-7 (ATCC) tumor grown in the nude mice. Briefly, female balb/c mice (age 6-7 wk) were first inoculated subcutaneously on the back with estrogen pellet (0.5 mg, 60-day release from Innovative Research of America, Cat #SE-121). Two days later, each mouse was inoculated with 5 million xMCF-7 cells, prepared as 0.2 ml cell suspension in 1:1 mix of Eagle's MEM to cell culture media and Matrigel (Corning Cat #354234) for each injection. After tumor size reached ˜235 mm^3, mice with xMCF-7 xenograft tumor are randomized to 10 mice per group and started receiving drug treatment.
In another xMCF-7 study, treatment initiated when tumor reached ˜250 mm^3. Each drug was given at 2 mg/kg orally, once daily for 28 days.

ER [5] = biological target: T1, ER; conditions: intramuscular injection monthly; cited from earlier work

T1 sequence (P03372 whole entry): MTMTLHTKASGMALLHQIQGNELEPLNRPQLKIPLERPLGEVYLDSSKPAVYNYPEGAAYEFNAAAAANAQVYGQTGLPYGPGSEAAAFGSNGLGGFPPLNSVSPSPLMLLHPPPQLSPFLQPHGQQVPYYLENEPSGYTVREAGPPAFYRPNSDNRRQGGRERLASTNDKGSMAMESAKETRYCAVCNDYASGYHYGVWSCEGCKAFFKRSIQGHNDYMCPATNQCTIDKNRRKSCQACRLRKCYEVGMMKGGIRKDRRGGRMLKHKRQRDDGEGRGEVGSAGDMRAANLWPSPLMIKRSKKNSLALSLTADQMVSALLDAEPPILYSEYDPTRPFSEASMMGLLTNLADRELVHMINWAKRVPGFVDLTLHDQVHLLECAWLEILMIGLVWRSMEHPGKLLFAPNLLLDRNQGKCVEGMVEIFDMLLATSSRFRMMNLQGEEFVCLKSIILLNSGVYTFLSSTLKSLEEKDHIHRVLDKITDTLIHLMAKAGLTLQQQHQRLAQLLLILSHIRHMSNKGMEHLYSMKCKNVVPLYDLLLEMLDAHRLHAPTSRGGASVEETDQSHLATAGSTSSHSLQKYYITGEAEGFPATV

hepatocyte CLint at 1 µM [2] [µL/min/1e6 cells] | half-life at 1 µM [2] [h] | CLint scaled at 1 µM [2] [mL/min/kg] | clearance [3] [mL/min/kg] | AUC(0-t) [3] [µM·h] | half-life [3] [h] | IC50 [4] [nM] | Structure (SMILES) | MCF7 ER Degradation at 4 hr (%) (ER [1]) | MCF7 ER Degradation at 24 hr (%) (ER [1]) | Human Hepatocyte Remaining Percentage @ 120 min (%) (pooled human hepatocytes) | tumor growth inhibition and tumor regression (FIG. 2) (xMCF-7 xenograft tumor) | ER degradation in clinical samples (ER [5]) [%] | tumor growth inhibition (tumor volume change, FIG. 1) (xMCF-7 xenograft tumor; oral 5 mg/kg or 30 mg/kg once a day for 28 days, fulvestrant 250 mg/kg subcutaneously, start at tumor ~235 mm^3)
9 | 2.55 | 23 | 19 | 85 | 3.5 | – | C[C@@H]1Cc2c([nH]c3ccccc23)[C@@H](c2c(F)cc(/C=C/C(=O)O)cc2F)N1CC(C)(C)F [AZD9496, reference compound] | 17 | 23 | 58 | – | – | –
– | – | – | – | – | – | 0.26 | C[C@@H]1Cc2c([nH]c3ccccc23)[C@@H](c2c(F)cc(OCCN3CC(CF)C3)cc2Cl)N1CC(C)(F)F [Compound 12] | – | – | – | more efficacious than AZD9496 | – | –
– | – | – | 1.33 | 658 | 62 | 0.8 | C[C@@H]1Cc2c([nH]c3ccccc23)[C@@H](c2c(Cl)cc(/C=C/C(=O)O)cc2Cl)N1CC(C)(F)F [Compound 25] | – | – | – | more efficacious than AZD9496 | – | more efficacious in vivo than fulvestrant, GDC-0810 and AZD9496
24.6 | 0.933 | 63 | 15.3 | 80 | 2.9 | – | CC/C(=C(/c1ccc(/C=C/C(=O)O)cc1)c1ccc2[nH]ncc2c1)c1ccc(F)cc1Cl [GDC-0810, reference compound] | – | – | 24 | – | – | –

Structure (SMILES) | hepatocyte CLint at 1 µM [2] [µL/min/1e6 cells] | half-life at 1 µM [2] [h] | CLint scaled at 1 µM [2] [mL/min/kg] | clearance [3] [mL/min/kg] | AUC(0-t) [3] [µM·h] | half-life [3] [h] | IC50 [4] [nM] | MCF7 ER Degradation at 4 hr (%) (ER [1]) | MCF7 ER Degradation at 24 hr (%) (ER [1]) | Human Hepatocyte Remaining Percentage @ 120 min (%) (pooled human hepatocytes) | tumor growth inhibition and tumor regression (FIG. 2) (xMCF-7 xenograft tumor) | ER degradation in clinical samples (ER [5]) [%] | tumor growth inhibition (tumor volume change, FIG. 1) (xMCF-7 xenograft tumor; oral 5 mg/kg or 30 mg/kg once a day for 28 days, fulvestrant 250 mg/kg subcutaneously, start at tumor ~235 mm^3)
C[C@]12CC[C@@H]3c4ccc(O)cc4C[C@@H](CCCCCCCCC[S+]([O-])CCCC(F)(F)C(F)(F)F)[C@H]3[C@@H]1CC[C@@H]2O (stereo partly shown) [Fulvestrant, reference compound] | 33 | 0.7 | 86 | – | – | – | – | 29 | 15 | 12 | – | ~50 | –

Source: US20240043442A1, “SELECTIVE ESTROGEN RECEPTOR DEGRADERS AND USES THEREOF” (InventisBio LLC, priority 2016, published 2024)
